The subject of the experiment is T1, Bgl3HB.
T1 construct: pPICZalphaA (alpha-factor secretion) in Komagataella phaffii X33; by primers starts MVNNAA and ends QIQDATP plus C-terminal His6; GH3, GH3-C and Fn3-like domains
The experiment is described as follows: pNP release, OD400, Lineweaver-Burk. It counts as biochemical, Trichoderma harzianum. The following applies: pH 4.0, 50 °C, 10 min. From the text:
pNP release, OD400, Lineweaver-Burk on Bgl3HB

Experimental findings from publication PMC9331182, “Characterization of a novel recombinant halophilic β-glucosidase of Trichoderma harzianum derived from Hainan mangrove” (BMC Microbiology, 2022) are described below.

As a reminder, the Km is the concentration of substrate that gives half-maximal velocity.

With `O=[N+]([O-])c1ccc(O[C@@H]2O[C@H](CO)[C@@H](O)[C@H](O)[C@H]2O)cc1` [pNPG], the Michaelis-Menten constant (Km) was 1220 µM.
